Results as given in patent publication US11559510B2, “Isoflavonoid composition with improved pharmacokinetics” (NOXOPHARM LIMITED, priority 2016, dated 2023).

What was measured:
[1] = Extrapolation of rat rectal plasma levels to humans on a body surface area basis; settings: extrapolated from rat rectal data
Description: In this study, idronoxil was given to rats at a dose of 10 mg/kg body weight, yielding a plasma concentration of about 35 to 40 ng/mL up to 8 hours from a single rectal administration. This dosage equates (on a body surface area basis) to a dose in humans of about 2 mg/kg BW. Thus, a blood level range of 20-400 ng/mL could be achieved in humans with a dosage range of 1-20 mg/kg BW, and the preferred range of 80-160 ng/mL with a dosage range of 4-8 mg/kg BW.

cancer cells = settings: cited from earlier work
[2] = cited from earlier work

## Oc1ccc(C2=Cc3ccc(O)cc3OC2)cc1 [Idronoxil, 2H-1-Benzopyran-7-0,1,3-(4-hydroxyphenyl)]
[1]; dosage range of 1-20 mg/kg BW
  blood level range that could be achieved in humans: 20 to 400 ng/mL
[1]; dosage range of 4-8 mg/kg BW
  blood level range that could be achieved in humans: 80 to 160 ng/mL
Cancer cells; cancer cells in cell culture
  concentration where it kills about 10% of the cancer cells (sensitising use): 50 to 300 ng/mL
Cancer cells; depending largely on the tumour type
  concentration that kills 50% of cancer cells in cell culture (IC50): 0.2 to 1.2 µg/mL
Cancer cells; left in cancer cell culture for 2-3 hours and then removed
  direct cytotoxic or sensitising effect when drug added in a pulsatile manner: largely ineffective
[2]; bolus IV administration
  plasma elimination half-life: short
[2]; given orally, most patients
  time after administration at which free idronoxil is detected in plasma: ≤ 30 min
[2]; given orally
  absolute oral bioavailability: low
[2]; humans treated both orally and intravenously
  blood levels readily attained: 50 µM
